Experiments:
Assay type in all cases: in vivo
[1] = tested on: high fat diet-induced insulin resistance model with C57/BL 6J mice; experiment: Body weight in high fat diet-induced insulin resistance model
Excerpt: Evaluation of effect of different fractions of Costus pictus D. Don on high fat diet-induced insulin resistance model with C57/BL 6J mice.
(§1) The study was designed to evaluate the effect of different fractions of Costus pictus D. Don on high fat-induced resistance Type 2diabetic model (HFD). Six week-old C57B1/6J mice were allowed free access to food and water. They were housed under identical standard conditions. The animals were kept for acclimatization for a period of 7 days. After 7 days, the mice were randomly divided into six groups of six mice each. The normal control group was treated with normal regular diet and the rest of the animals were fed with high fat diet for 6 weeks. After 6 weeks, methanolic extract of fresh leaves of Costus pictus D. Don, and the extract had low oxalic acid and/or oxalates content, silica purified ethyl acetate extract of methanolic extract of fresh leaves of Costus pictus D. Don where the extract had low oxalic acid and/or oxalates content and ethyl acetate extract of 90% methanolic extract of fresh leaves of Costus pictus D. Don where the extract had low oxalic acid and/or oxalates content were administered at 40 mg/kg p.o. for 6 consecutive weeks. The experimental design was as follows:
Group 3—HFD for 6 weeks and Standard drug treated group for 6 weeks—metformin.
Group 4—HFD for 6 weeks and methanolic extract of fresh leaves of Costus pictus D. Don where the extract had low oxalic acid and/or oxalates content (Sample 2 prepared as per example 1) at 40 mg/kg orally for 6 weeks.
Group 5—HFD for 6 weeks and silica purified ethyl acetate extract of 90% methanolic extract of fresh leaves of Costus pictus D. Don where the extract had low oxalic acid and/or oxalates content (Sample 5 prepared as per example 4) at 40 mg/kg orally for 6 weeks.
Group 6—HFD for 6 weeks and ethyl acetate extract of 90% methanol extract of fresh leaves of Costus pictus D. Don where the extract had low oxalic acid and/or oxalates content (Sample 4 prepared as per example 3) at 40 mg/kg orally for 6 weeks.
(§2) Body weights were determined biweekly. At the end of experimental period, blood samples were collected to determine plasma glucose, insulin, leptin, glycosylated hemoglobin, triglycerides, total cholesterol, LDL, HDL and VLDL.

[2] = tested on: high fat diet-induced insulin resistance model with C57/BL 6J mice; experiment: Blood glucose in high fat diet-induced insulin resistance model; details: HFD mice, end of experimental period; extracts 40 mg/kg orally for 6 weeks, metformin as standard drug
Method: as §1, §2

[3] = tested on: high fat diet-induced insulin resistance model with C57/BL 6J mice; experiment: Lipid profile in high fat diet-induced insulin resistance model; details: high fat diet induced diabetes mellitus, extracts 40 mg/kg orally for 6 weeks, metformin as standard drug
Method: The study was designed to evaluate the effect of different fractions of Costus pictus D. Don on high fat-induced resistance Type 2diabetic model (HFD). Six week-old C57B1/6J mice were allowed free access to food and water. They were housed under identical standard conditions. The animals were kept for acclimatization for a period of 7 days. After 7 days, the mice were randomly divided into six groups of six mice each. The normal control group was treated with normal regular diet and the rest of the animals were fed with high fat diet for 6 weeks. […] The experimental design was as follows:
as §2

[4] = tested on: high fat diet-induced insulin resistance model with C57/BL 6J mice; experiment: Serum insulin and glycosylated hemoglobin in high fat diet-induced insulin resistance model; details: high fat diet induced diabetes mellitus, extracts 40 mg/kg orally for 6 weeks, metformin as standard drug
Method: as §1, §2

## CN(C)C(=N)N=C(N)N [metformin]
[1]; C57/BL 6J mice on high fat diet, week 0, before treatment
  Body weight, week 0: 15 grams
[1]; C57/BL 6J mice on high fat diet, week 2, before treatment
  Body weight, week 2: 30 grams
[1]; C57/BL 6J mice on high fat diet, week 4, before treatment
  Body weight, week 4: 46 grams
[1]; C57/BL 6J mice on high fat diet, week 6, start of treatment
  Body weight, week 6: 61 grams
[1]; HFD mice, week 8, extracts 40 mg/kg orally from week 6, metformin as standard drug
  Body weight, week 8: 48 grams
[1]; HFD mice, week 10, extracts 40 mg/kg orally from week 6, metformin as standard drug
  Body weight, week 10: 35 grams
[1]; HFD mice, week 12, extracts 40 mg/kg orally from week 6, metformin as standard drug
  Body weight, week 12: 35 grams
[2]
  Blood glucose: 100 mg/dL
[3]
  HDL: 99 mg/dL
  LDL: 17 mg/dL
  VLDL: 6 mg/dL
[3]; total cholesterol
  TC: 122 mg/dL
[3]; triglycerides
  TG: 30 mg/dL
[4]
  Glycosylated Hb: 0.5 % of total Hb
[4]; serum
  Insulin: 1.7 ng/mL
